Converted amounts (≈) assume the structure as drawn.
Assays:
Assay type in all cases: ADME
[1] = Stability of the compound in simulated gastric fluid after 24 hrs at 37 degC; conditions: simulated gi fluid
[2] = Passive permeability of the compound by PAMPA assay; conditions: read-out: permeability
[3] = Solubility of the compound in fasted simulated intestinal fluid after 4 hrs

Stability [1]: Stable
Papp [2]: 37 ×10⁻⁶ cm/s
solubility at 4 h [3]: 33 µg/mL (≈ 82.5 µM)
Compound: CC(C)S(=O)(=O)c1c(Cl)ccc(Nc2nc(=O)cc(C(C)(C)C)[nH]2)c1O

Source: ChEMBL document CHEMBL3351964, “2-Aminopyrimidin-4(1H)-one as the novel bioisostere of urea: discovery of novel and potent CXCR2 antagonists” (Bioorg Med Chem Lett, 2014)
